Measured values from the NIST ThermoML archive (doi:10.1016/j.jct.2005.09.005).

Assay: molar heat capacity at constant pressure
Details: 101.33 kPa, Vacuum adiabatic calorimetry

[2H]O[2H] [water-d2]
molar heat capacity at constant pressure [J/K/mol]
Details	Crystal	Liquid
155.87 K	26.52	–
158.32 K	26.94	–
160 K	27.2	–
160.81 K	27.33	–
163.26 K	27.73	–
165.71 K	28.13	–
168.15 K	28.55	–
170 K	28.83	–
170.6 K	28.97	–
173.05 K	29.33	–
175.5 K	29.73	–
177.94 K	30.14	–
180 K	30.47	–
180.39 K	30.54	–
182.83 K	30.96	–
185.28 K	31.33	–
187.72 K	31.71	–
190 K	32.09	–
190.17 K	32.11	–
192.61 K	32.48	–
195.05 K	32.9	–
197.5 K	33.29	–
199.99 K	33.7	–
200 K	33.7	–
202.44 K	34.08	–
204.88 K	34.48	–
207.33 K	34.88	–
210 K	35.29	–
210.91 K	35.46	–
213.05 K	35.74	–
215.49 K	36.17	–
217.93 K	36.56	–
220 K	36.86	–
220.38 K	36.96	–
222.82 K	37.34	–
225.26 K	37.72	–
227.71 K	38.06	–
230 K	38.45	–
230.15 K	38.5	–
232.58 K	38.89	–
235.03 K	39.22	–
237.47 K	39.55	–
239.91 K	39.99	–
240 K	40.05	–
242.35 K	40.38	–
244.78 K	40.92	–
247.23 K	41.27	–
249.73 K	41.6	–
250 K	41.64	–
252.17 K	41.99	–
254.61 K	42.32	–
257.04 K	42.71	–
257.41 K	42.2	–
259.48 K	43.1	–
260 K	43.16	–
261.91 K	43.48	–
262.39 K	43.37	–
264.34 K	43.87	–
266.76 K	44.33	–
269.18 K	44.87	–
270 K	44.55	–
271.59 K	45.53	–
273.99 K	47.53	–
274.34 K	–	85.72
276.82 K	45.8	85.38
278.53 K	–	85.14
280 K	–	84.97
282.13 K	–	84.72
285.21 K	–	84.64
286.94 K	–	84.47
289.3 K	–	84.14
290 K	–	84.05
291.67 K	–	83.97
294.02 K	–	83.81
296.38 K	–	83.72
298.15 K	–	83.47
298.72 K	–	83.56
300 K	–	83.39
301.66 K	–	83.39
305.18 K	–	83.14
308.67 K	–	83.08
310 K	–	82.96
312.17 K	–	82.92
315.64 K	–	82.85
319.1 K	–	82.78
320 K	–	82.7
322.54 K	–	82.69
325.97 K	–	82.58
329.39 K	–	82.62
330 K	–	82.52
332.72 K	–	82.55
336.11 K	–	82.57
339.47 K	–	82.65
340 K	–	82.67
342.82 K	–	82.74
346.15 K	–	82.71
350 K	–	82.8
